The source of these data is article PMC10709440, “High-throughput ligand profile characterization in novel cell lines expressing seven heterologous insect olfactory receptors for the detection of volatile plant biomarkers” (Scientific Reports, 2023).

In one assay the target is T1, Drosophila OR13a (Drosophila melanogaster, UniProt Q9VXL0).
T1 construct: expressed in transfected cells
T1 sequence (Q9VXL0 1-418): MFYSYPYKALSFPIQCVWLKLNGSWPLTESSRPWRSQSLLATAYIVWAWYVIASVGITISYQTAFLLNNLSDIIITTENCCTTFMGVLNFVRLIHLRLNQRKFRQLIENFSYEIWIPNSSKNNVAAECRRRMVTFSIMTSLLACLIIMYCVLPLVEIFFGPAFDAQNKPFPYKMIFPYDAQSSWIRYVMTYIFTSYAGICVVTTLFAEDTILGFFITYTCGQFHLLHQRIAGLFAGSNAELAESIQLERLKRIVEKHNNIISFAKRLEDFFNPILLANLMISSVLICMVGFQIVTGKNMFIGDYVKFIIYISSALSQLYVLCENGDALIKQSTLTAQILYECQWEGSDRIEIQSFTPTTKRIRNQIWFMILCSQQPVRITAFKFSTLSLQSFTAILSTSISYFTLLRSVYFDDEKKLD
T1 sequence (Q9VNB5 1-486 partner): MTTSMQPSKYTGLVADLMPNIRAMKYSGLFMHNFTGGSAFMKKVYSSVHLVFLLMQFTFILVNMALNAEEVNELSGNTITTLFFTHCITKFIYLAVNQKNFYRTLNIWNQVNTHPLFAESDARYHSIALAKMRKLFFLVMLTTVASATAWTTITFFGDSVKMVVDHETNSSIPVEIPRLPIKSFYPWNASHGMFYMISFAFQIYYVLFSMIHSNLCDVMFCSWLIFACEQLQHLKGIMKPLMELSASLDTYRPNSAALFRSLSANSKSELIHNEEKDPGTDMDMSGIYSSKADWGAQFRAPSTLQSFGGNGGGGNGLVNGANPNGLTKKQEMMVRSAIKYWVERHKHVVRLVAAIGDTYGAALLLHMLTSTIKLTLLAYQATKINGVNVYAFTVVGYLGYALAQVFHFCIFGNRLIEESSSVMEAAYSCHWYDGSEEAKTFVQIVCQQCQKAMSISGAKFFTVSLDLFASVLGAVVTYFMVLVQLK
The assay is described as follows: Calcium ion fluorescence (GCaMP6) assay, OR13a stable HEK293 cell line. The format is cell-based. The method, then:
These VUAA1 normalized ∆F values were used to compare the different receptors and ligands.
The concentration-dependent effect of the reference ligands on their cognate cell lines was examined in more detail. Twelve different ligand concentrations were measured on each cell line in an overall 0.01 μM to 100 μM concentration range with 5 repetitions with three technical replicates each time.
Twelve thousand to 18,000 cells were plated into each well of a black wall, transparent bottom 384-well microplate (Greiner) 48 h or 72 h before the measurements and were simultaneously treated with 1 μg/mL doxycycline. […] The plate has 24 columns, thus we could record responses in up to eight different cell lines in each plate. On the day of the experiment, the growth medium was replaced with 20 µL assay buffer/well (140 mM NaCl, 5 mM KCl, 2 mM CaCl2, 1 mM MgCl2, 5 mM HEPES-Na, 20 mM glucose, pH 7.3, 340 mOsm). […] Baseline fluorescence (F0) was recorded for 5 s, after which 7 µL VOC buffer (140 mM NaCl, 5 mM KCl, 2 mM CaCl2, 1 mM MgCl2, 5 mM HEPES-Na, 31 mM glucose, 0.1% DMSO, pH 7.3, 340 mOsm) was injected into each well in one row and the fluorescence response was recorded for an additional 30 s, at a rate of one read/sec. VOC solutions (VOC buffer with 4× concentration of the final measured VOC concentration, 9 µL/well was injected) were measured on the same wells in a second round with the same protocol. Each individual concentration of a specific VOC sample was recorded in three wells for the same cell line on the same microplate. The raw data were exported in xls file format, F0 and FMAX values, and the fluorescence intensity changes (∆F) were calculated in Excel (Microsoft) (Supplementary file Data summary.xlsx) using the following equation: ΔF=FMAX-F0/F0 (see also Fig. 1C). On each plate, we recorded the response of each cell line to 50 µM VUAA1. The average of these ∆F values of each cell line were used to calculate the VUAA1-normalized values for the rest of the plate, by dividing VOC response ∆F values by the average VUAA1 response ∆F value of the corresponding OR cell line. Each VOC-OR combination was measured three times as technical replicates. […] The average of these replicates were used as one ∆F and VUAA1-normalized ∆F in the following analysis.
In the next rows we tested the reference VOCs (or other VOCs known to activate the corresponding cell lines), in order to test if all cell lines are responsive. The remaining rows were used to test VOCs with unknown effect.
The recorded FMAX, F0, ∆F, VUAA1-normalized ∆F values, as well as the OR name, the name of the tested sample, and the final concentration for each well were copied into supplementary file Data summary.xlsx, that was used to summarize all the plates recorded. Here, the averages of the measurements were calculated for each receptor-VOC-concentration combination.

The target in another assay is T2, Drosophila OR49b (Drosophila melanogaster, UniProt Q9V6H2).
T2 construct: expressed in transfected cells
T2 sequence (Q9V6H2 1-375): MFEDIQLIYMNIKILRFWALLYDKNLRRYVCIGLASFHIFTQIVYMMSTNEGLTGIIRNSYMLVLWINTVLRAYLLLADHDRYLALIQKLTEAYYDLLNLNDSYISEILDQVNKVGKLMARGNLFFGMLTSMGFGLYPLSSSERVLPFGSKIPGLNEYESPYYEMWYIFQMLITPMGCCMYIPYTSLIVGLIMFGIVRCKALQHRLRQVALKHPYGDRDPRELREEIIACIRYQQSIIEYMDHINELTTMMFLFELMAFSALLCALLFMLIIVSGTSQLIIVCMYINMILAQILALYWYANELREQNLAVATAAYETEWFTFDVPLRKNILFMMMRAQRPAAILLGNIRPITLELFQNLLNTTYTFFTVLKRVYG
T2 sequence (Q9VNB5 1-486 partner): T1 sequence (Q9VNB5 1-486 partner)
The experiment in a line: cell-based. Conditions: for Average response: mean of biological replicates; for activation at 1 µM / activation at 10 µM / activation at 100 µM: HEK293, read-out: OR49b response (VUAA1-normalized response). In a few lines: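 HEK293 lines stably expressing each Drosophila OR with GCaMP6, doxycycline-induced (1 μg/mL) 48 or 72 h. Fluorescence recorded 5 s baseline then 30 s after VOC injection at pH 7.3; ΔF=(FMAX−F0)/F0, normalized to 50 µM VUAA1 response per line, triplicate wells averaged; concentration series 0.01–100 μM.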

Where [1] appears, read: ligand concentration 1 (unit not given), threshold 0.05, below shown as 0.
The mark [2] stands for this setting: ligand concentration 10 (unit not given), threshold 0.05, below shown as 0.
[3] abbreviates: ligand concentration 100 (unit not given), threshold 0.05, below shown as 0.
Where [4] appears, read: OR49b cell line, odorant cc. 1 µM.
Setting [5] is: OR49b cell line, odorant cc. 10 µM.
[6] abbreviates: OR49b cell line, odorant cc. 100 µM.
The mark [7] stands for this setting: HEK293, read-out: OR13a Average response (VUAA1-normalized), 1 μM VOC, 50 μM VUAA1 = 1, responses not exceeding 0.05 considered 0.
[8] abbreviates: HEK293, read-out: OR13a Average response (VUAA1-normalized), 10 μM VOC, 50 μM VUAA1 = 1, responses not exceeding 0.05 considered 0.
Where [9] appears, read: HEK293, read-out: OR13a Average response (VUAA1-normalized), 100 μM VOC, 50 μM VUAA1 = 1, responses not exceeding 0.05 considered 0.
[10] abbreviates: HEK293, read-out: OR13a response (VUAA1-normalized response), VOC concentration 1 μM.
The mark [11] stands for this setting: HEK293, read-out: OR13a response (VUAA1-normalized response), VOC concentration 10 μM.
[12] abbreviates: HEK293, read-out: OR13a response (VUAA1-normalized response), VOC concentration 100 μM.
Where [13] appears, read: ligand concentration 1 (unit not given), 0.05 threshold, values below shown as 0.
Setting [14] is: ligand concentration 10 (unit not given), 0.05 threshold, values below shown as 0.
The mark [15] stands for this setting: ligand concentration 100 (unit not given), 0.05 threshold, values below shown as 0.

Read-outs that look alike come from different tables or passages of the source.

Turning to `C=C(C)[C@H]1CC=C(C)CC1` [limonene], the “OR13a Average response (VUAA1-normalized)” value at Drosophila OR13a (1 μM VOC, 50 μM VUAA1 = 1, responses not exceeding 0.05 considered 0) was 0.00; on Drosophila OR13a (10 μM VOC, 50 μM VUAA1 = 1, responses not exceeding 0.05 considered 0), 0.00; at Drosophila OR13a (100 μM VOC, 50 μM VUAA1 = 1, responses not exceeding 0.05 considered 0), 0.00. Further, the “OR13a response (VUAA1-normalized response)” value at Drosophila OR13a (VOC concentration 1 μM), on Drosophila OR13a (VOC concentration 10 μM) and on Drosophila OR13a (VOC concentration 100 μM) was 0.00 in each case. Moreover, the “DF norm AVERAGE OR13a” value at Drosophila OR13a (setting [1]), on Drosophila OR13a (setting [2]) and on Drosophila OR13a (setting [3]) was 0 in each case. For the same compound, the Average response on Drosophila OR49b (setting [4]) is given as 0.00; on Drosophila OR49b (setting [5]), 0.00; at Drosophila OR49b (setting [6]), 0.028. Further, the “OR49b response (VUAA1-normalized response)” value at Drosophila OR49b (VOC concentration 1 μM), on Drosophila OR49b (VOC concentration 10 μM) and on Drosophila OR49b (VOC concentration 100 μM) was 0.00 each time. Moreover, the “DF norm AVERAGE OR49b” value at Drosophila OR49b (setting [1]), at Drosophila OR49b (setting [2]) and on Drosophila OR49b (setting [3]) was 0 in each case.

For the compound `CC(=O)OCC(C)C` [isobutyl acetate], the results for the activation at 1 µM at Drosophila OR13a (setting [7]), at Drosophila OR13a (setting [10]) and on Drosophila OR49b (VOC concentration 1 μM) were 2%, 0% and 5%, respectively. Further, the values for the activation at 10 µM on Drosophila OR13a (setting [8]), at Drosophila OR13a (setting [11]) and on Drosophila OR49b (VOC concentration 10 μM) were 7%, 7% and 0%, respectively. In addition, the activation at 100 µM on Drosophila OR13a (setting [9]) came to 3.7%; on Drosophila OR13a (setting [12]) it was 0%; on Drosophila OR49b (VOC concentration 100 μM), 0%. Besides, the “DF norm AVERAGE OR13a” value amounted to 0 at Drosophila OR13a (setting [1]), 0.06695 on Drosophila OR13a (setting [2]) and 0 on Drosophila OR13a (setting [3]). Besides, the figures for the Average response on Drosophila OR49b (setting [4]), on Drosophila OR49b (setting [5]) and on Drosophila OR49b (setting [6]) were 0.05, 0.0342 and 0.00, respectively. Moreover, the “DF norm AVERAGE OR49b” value on Drosophila OR49b (setting [1]) is recorded as 0.05093; at Drosophila OR49b (setting [2]), 0; at Drosophila OR49b (setting [3]) it was 0.

`CCCCCCCCCCC` [undecane]: on Drosophila OR13a (setting [7]), the activation at 1 µM amounted to 0%. On Drosophila OR13a (setting [8]), the activation at 10 µM is 0%. Also, the activation at 100 µM at Drosophila OR13a (setting [9]) was 0%. Moreover, the “OR13a response (VUAA1-normalized) at 1 μM” value at Drosophila OR13a (OR13a cell line, VOC concentration 1 μM) was 0.00. In addition, on Drosophila OR13a (OR13a cell line, VOC concentration 10 μM), the “OR13a response (VUAA1-normalized) at 10 μM” value was determined as 0.00. Moreover, on Drosophila OR13a (OR13a cell line, VOC concentration 100 μM), the “OR13a response (VUAA1-normalized) at 100 μM” value is listed as 0.00. Moreover, the “DF norm AVERAGE OR13a” value at Drosophila OR13a (setting [13]), on Drosophila OR13a (setting [14]) and at Drosophila OR13a (setting [15]) was 0 each time. The “OR49b response (VUAA1-normalized) at 1 μM” value on Drosophila OR49b (OR49b cell line, VOC concentration 1 μM) was found to be 0.00. The “OR49b response (VUAA1-normalized) at 10 μM” value on Drosophila OR49b (OR49b cell line, VOC concentration 10 μM) is listed as 0.00. Moreover, the “OR49b response (VUAA1-normalized) at 100 μM” value on Drosophila OR49b (OR49b cell line, VOC concentration 100 μM) was found to be 0.00. Also, the Average response on Drosophila OR49b (setting [4]) was found to be 0.00; on Drosophila OR49b (setting [5]), 0.00; at Drosophila OR49b (setting [6]), 0.0367. In addition, the “DF norm AVERAGE OR49b” value on Drosophila OR49b (setting [13]), at Drosophila OR49b (setting [14]) and on Drosophila OR49b (setting [15]) was 0 each time.

Regarding `CCCC(O)CC` (stereo not drawn) [3-hexanol], the figures for the activation at 1 µM on Drosophila OR13a (setting [7]), at Drosophila OR13a (setting [10]) and at Drosophila OR49b (VOC concentration 1 μM) were 5%, 0% and 23%, respectively. For the same compound, the activation at 10 µM on Drosophila OR13a (setting [8]) was found to be 4.43%; at Drosophila OR13a (setting [11]), 0%; at Drosophila OR49b (VOC concentration 10 μM) it was 20%. For the same compound, the results for the activation at 100 µM on Drosophila OR13a (setting [9]), on Drosophila OR13a (setting [12]) and at Drosophila OR49b (VOC concentration 100 μM) were 1.88%, 0% and 8%, respectively. The “DF norm AVERAGE OR13a” value on Drosophila OR13a (concentration 1, normalized fluorescence change, values below 0.05 threshold given as 0) came out at 0; at Drosophila OR13a (concentration 10, normalized fluorescence change, values below 0.05 threshold given as 0) it was 0; at Drosophila OR13a (concentration 100, normalized fluorescence change, values below 0.05 threshold given as 0), 0. For the same compound, the Average response at Drosophila OR49b (setting [4]) came to 0.23; on Drosophila OR49b (setting [5]), 0.20; on Drosophila OR49b (setting [6]), 0.08.
